Assays:
Assay type in all cases: cell-based
ROSA safe harbor locus = assay: CRISPR-Cas9 RNP gene editing of bovine ESC, indels by Sanger sequencing/TIDE, ROSA locus; conditions: gbESC_H2682 cells; RNP 20 pmol SpCas9 + 60 pmol sgRNA, program CM138; DNA after four days; TIDE
Description: (§1) Test edits were performed in the ROSA and CD18 loci. CRISPR guides targeting the CD18 (ITGB2) gene at chr1:144,776,517, or the ROSA safe harbor locus region chr22:17,210,883-17,210,982, (genome assembly ARS-UCD1.2/bosTau9) were designed and synthesized as sgRNA molecules (IDT, Coralville IA) as shown in Table 2.
(§2) Ribonucleoprotein complexes formed from 20 pmol SpCas9 (IDT, Coralville IA) and 60 pmol sgRNA were electroporated into gbESC_H2682 cells using P3 nucleofection solution and the Amaxa 4D program CM138. After four days DNA from the cells was harvested using QUICKEXTRACT™ reagent (Lucigen, Middleton WI), and PCR was performed using the primers in Table 3.

seventh exon of CD163 = assay: CRISPR-CAS9 editing of porcine ESC, single-cell clones screened by PCR genotyping; conditions: two guides together, C9 line; RNP 20 pmol SpCas9 + 60 pmol sgRNA, pulse DS137; colonies screened at day 21
Excerpt: As proof of concept, the present inventors sought to create the CD163 edit disclosed in U.S. Pat. No. 11,535,850. Two guides, ctggcttact cctatcatga agg (SEQ ID NO: 103) and tcccatgcca tgaagagggt agg (SEQ ID NO: 104) were used to excise the seventh exon of CD163. These guides were electroporated into the C9 line by mixing cells in P3 nucleofection solution with ribonucleoprotein (20 pmol SpCas9 complexed with 60 pmol of the guide sgRNA) and using the pulse condition DS137 in a 4D-Nucleofector system (Lonza, Walkersville MD). Between day 7 and 12 post-electroporation, single cells were deposited one per well into a 96 well plate (coated with laminin 521 and containing TI media with Y27632) using a Hana Single Cell Dispenser instrument (Namocell, San Jose CA). Cells were allowed to grow until day 21, and then colonies were screened by PCR genotyping (see 11,535,850).

[1] = system: Porcine stem cell line C2; assay: Single passage cell growth in media #2 with additives (CELLTITER-GLO 2.0); conditions: simple defined media #2 plus additive, day five; for Cell Growth (% of simple media): line C2 passaged 1:80, laminin 521, changed daily
Description: A revised simple defined media #2 (Table 6, with lower ascorbic acid and FGF2) was used to determine any immediate benefit of certain additives over the timeframe of one passage.
Porcine stem cell line C2 (see Example 2) growing in the standard TI media conditions was passaged at a 1:80 ratio into a laminin 521 coated 24 well plate containing simple defined media #2 alone or with the addition of 1% bovine serum albumin, 1% Albumax, 1 mg/mL polyvinyl acetate, 1:500 chemically defined lipids (Gibco), 1:500 lipid mixture solution (Peprotech), 1:1000 Trace Elements B or C (Corning), sodium bicarbonate, and double the amount of ITS (insulin/transferrin/selenium). Cells were incubated at 38.5° C./5% 02 and media and additives were changed daily. On day five cell growth was measured using the CELLTITER-GLO® 2.0 kit (Promega, Madison WI).

CD18 (ITGB2) gene = assay: CRISPR-Cas9 RNP gene editing of bovine ESC, indels by Sanger sequencing/TIDE, CD18 locus; conditions: gbESC_H2682 cells; RNP 20 pmol SpCas9 + 60 pmol sgRNA, program CM138; DNA after four days; TIDE
Description: as §1, §2

Molecule: 748: sgRNA, guide sequence TGTCGAGTCTCGATTATGGG, targeting bovine ROSA safe harbor locus (listed as DNA, chemistry not given here; listed as Bos taurus) [compound 748]
- Efficiency (%) (editing frequency) (ROSA safe harbor locus): 74.3%

Molecule: SEQ ID NO: 103: guide ctggcttact cctatcatga agg used to excise the seventh exon of CD163 (guide CTGGCTTACTCCTATCATGAAGG; listed as DNA, chemistry not given here; listed as Sus scrofa)
- clones homozygous for the CD163 edit (seventh exon of CD163): Two clones that were homozygous for the edit were found

Molecule: SEQ ID NO: 104: guide tcccatgcca tgaagagggt agg used to excise the seventh exon of CD163 (guide TCCCATGCCATGAAGAGGGTAGG; listed as DNA, chemistry not given here; listed as Sus scrofa)
- clones homozygous for the CD163 edit (seventh exon of CD163): Two clones that were homozygous for the edit were found

Molecule: 750: sgRNA, guide sequence AGGCGATGACGAGATCGCGG, targeting bovine ROSA safe harbor locus (listed as DNA, chemistry not given here; listed as Bos taurus) [compound 750]
- Efficiency (%) (editing frequency) (ROSA safe harbor locus): 58.2%

Molecule: O=C([O-])O.[Na+] [Sodium bicarbonate]
- Cell Growth (% of simple media) [1]: 75%

Molecule: 754: sgRNA, guide sequence CCCCGTGGGACTCACCGGAC, targeting bovine CD18 (ITGB2) gene (listed as DNA, chemistry not given here; listed as Bos taurus) [compound 754]
- Efficiency (%) (editing frequency) (CD18 (ITGB2) gene): 34.9%

Molecule: + 1% BSA (Gibco A10008-01): 1% bovine serum albumin added to simple defined media #2
- effect on cell growth in words ([1]; line C2): beneficial to cell growth
- Cell Growth (% of simple media) [1]: 187%

Molecule: 749: sgRNA, guide sequence ATAATCGAGACTCGACATGG, targeting bovine ROSA safe harbor locus (listed as DNA, chemistry not given here; listed as Bos taurus) [compound 749]
- Efficiency (%) (editing frequency) (ROSA safe harbor locus): 66.5%
